Assay results: patent US20060165743A1, “Method and device to control and condition the behavior of the varroa destructor mite in a beehive, or in other environment where bees reproduce” (Universita' Degli Studi Di Udine, priority 2002, published 2006)

How the values were obtained:
[1] = tested on: Varroa destructor mite; assay: Activity test in artificial observation plates (treated wells vs solvent control wells, each with a bee larva); type: in vivo; conditions: for AVERAGE ACTIVITY TREATED: 6 observations in 30 min, 34° C., 75% RH, dark
Experimental: The activity of (±)-2-hydroxyhexanoic acid and of (±)-3-hydroxyhexanoic acid, dissolved in water, was tested in a plate 10 (FIG. 1). Each plate 10 consists of a parallelepiped of sodium-calcium glass with a 70×70 mm square base, and a height of 12 mm, in which four cylindrical wells 12a, 12b, are made, each with a diameter of 7 mm and a depth of 10 mm, similar in size to bee cells. The wells 12a, 12b are equidistant from the center. At the center of the plate 10 a Varroa destructor mite was placed, indicated by the number 11. To delimit the space in which the mite 11 could move, the plates 10 were closed with a cover element 15 consisting of a glass disk joined to a stainless steel spacer ring 17. Two opposite wells 12a of each plate 10 were treated with (±)-2-hydroxyhexanoic acid or with (±)-3-hydroxyhexanoic acid, dissolved in water; the other two wells 12b, on the contrary, were used as controls and were treated only with the solvent. In each individual well 12a, 12b of the plate 10 a bee larva 20 was then placed. The biological activity test on (±)-2-hydroxyhexanoic acid provides a first test during which 1 ng of (±)-2-hydroxyhexanoic acid is tested, a second test during which 10 ng of (±)-2-hydroxyhexanoic acid are tested and a third test during which 100 ng are tested and a fourth test during which 1000 ng are tested. The biological activity test on (±)-3-hydroxyhexanoic acid provides a first test during which 10 ng of (±)-3-hydroxyhexanoic acid are tested, a second test during which 100 ng of (±)-3-hydroxyhexanoic acid are tested, and a third test during which 1000 ng are tested. At the beginning of each test the Varroa destructor mite 11, in this case a female adult, is located at the center of each plate 10 with a thin brush; each plate 10 is then closed and transferred to a thermostatic chamber. Subsequently, the position of the mite 11 was monitored every 5 minutes for a total of 30 minutes, to a total of 6 observations. 20 plates were used for every test, with 4 repetitions, to a total of 80 plates. During the tests the temperature and relative humidity were kept respectively around 34° C. and 75%; the inside of the thermostatic chamber was kept dark. The action of the substances tested on the Varroa destructor mite was evaluated by calculating an average value for the treated wells 12a and the control wells 12b, equal to the average number of times in which the Varroa destructor mite was observed inside one or the other in the 6 observations made in the course of the 30 minutes of each test. The average values thus obtained are representative, with a certain approximation, of the time spent by the mite in the two types of well 12a, 12b. The attractiveness of a substance thus determines higher average values for the treated wells 12a with respect to those of the control wells 12b.

[2] = tested on: Varroa destructor mite; assay: Activity test in the beehive (cells with worker bee larvae near to opercolature); type: in vivo; conditions: 100 ng in 1 μl solvent per cell, 18 hours after treatment
Experimental: (±)-2-hydroxyhexanoic acid was also tested in the beehive, by applying, in the cells with worker bee larvae near to opercolature, a solution of 100 ng of (±)-2-hydroxyhexanoic acid dissolved in 1 μl of a suitable solvent. The infestation of such cells was compared with that of the control cells treated with the solvent alone: the cells used were examined 18 hours after treatment and the Varroa destructor mites present in the treated cells and in the control cells were counted.

| SMILES | AVERAGE ACTIVITY TREATED ([1]; 1 ng in treated wells) | AVERAGE ACTIVITY TREATED ([1]; 10 ng in treated wells) | AVERAGE ACTIVITY TREATED ([1]; 100 ng in treated wells) | AVERAGE ACTIVITY TREATED ([1]; 1000 ng in treated wells) | Activity on / attractiveness to the Varroa destructor mite (infestation of treated wells vs control wells), in words ([1]; dose 10 ng) | Activity on / attractiveness to the Varroa destructor mite (infestation of treated wells vs control wells), in words ([1]; dose 100 ng) | Number of Varroa destructor mites per cell in treated cells vs non-treated cells, in words [2] | N. OF VARROA DESTRUCTOR MITE PER CELL TREATED, Average ([2]; average of 5 replications) |
| --- | --- | --- | --- | --- | --- | --- | --- | --- |
| CCCCC(O)C(=O)O (racemic) [(±)-2-hydroxyhexanoic acid] | 22.3 | 31.8 | 34.7 | 23.0 | active on and attractive to the Varroa destructor mite | active on and attractive to the Varroa destructor mite | significantly greater | 0.60 |
| CCCCCCC(O)C(=O)O (racemic) [(±)-2-hydroxyoctanoic acid, reference compound] | – | – | 29.5 | – | – | not found to be active | – | – |
| CCCC(O)CC(=O)O (racemic) [(±)-3-hydroxyhexanoic acid] | – | 24.5 | 36.8 | 23.3 | – | active on and attractive to the Varroa destructor mite | – | – |
